Laboratory results from patent publication US20100150938A1, “METHODS AND COMPOSITIONS FOR REDUCING INFLAMMATION AND TREATING INFLAMMATORY DISORDERS” (UNIVERSITY OF MASSACHUSETTS, priority 2008, published 2010).
“Also recorded” adds a separate entry of the source. Non-standard residues stand in square brackets, D forms with d. Residues, ends and D or L forms follow the SMILES beside them. *: point of attachment. Sta = CC(C)C[C@H](N)[C@@H](O)CC(=O)O; Isovaleryl = CC(C)CC(=O)*; Cbz = O=C(OCc1ccccc1)*; CH2F = FC*

Key:
caspase-1 [1] = experiment: Caspase-1 cleavage/activation in mouse macrophages (Western blot p10); assay type: cell-based; details: for caspase-1 cleavage induced by the stimulus: LPS-primed bone marrow-derived macrophages, wild-type; for caspase-1 cleavage (p10) induced by the stimulus: LPS-primed wild type bone marrow-derived macrophages, Aβ and reverse Aβ 10 μM
Experimental: (§1) Bone marrow derived macrophages were generated as described (Severa, M et al. Journal of Biological Chemistry 281:26188-26195 (2006)). Human PBMCs were isolated by from whole blood of healthy volunteers by density gradient centrifugation. Lysis of red blood cells was performed using red blood cell lysis buffer (Sigma). Experiments in PBMCs and macrophages were carried out at a cell density of 2×10^6 cells/ml. All primary cells and cell lines except THP-1 cells were cultured in DMEM supplemented with L-glutamine, ciprofloxacin (Cellgro, Manassas, Va.) and 10% fetal calf serum (Hyclone, Logan, Utah). THP-1 cells were cultured in RPMI supplemented with 10% fetal calf serum (Hyclone), L-glutamine, sodium pyruvate (Cellgro), and ciprofloxacin. One day prior to stimulation, THP-1 cells were differentiated using 0.5 μM PMA for three hours, washed three times and plated for stimulation. All experiments that were performed for Western blot analysis were carried out in serum free DMEM medium. ATP stimulations were carried out at 5 mM one hour prior to harvesting supernatants.
Cell culture supernatants were precipitated by adding an equal volume of methanol and 0.25 volumes of chloroform, vortexed and centrifuged at 20.000×g for 10 min. The upper phase was discarded and 500 μl of methanol was added to the interphase. This mixture was centrifuged at 20.000×g for 10 min and the protein pellet dried at 55° C., resuspended in Laemmli buffer and boiled at 99° C. for 5 min. Samples were separated by SDS-PAGE (15%) and transferred onto nitrocellulose membranes. As indicated, blots were incubated with rabbit polyclonal antibody to anti murine caspase-1 p10 (sc-514, Santa Cruz Biotechnology, Santa Cruz, Calif.), rabbit polyclonal anti human caspase-1 p10 (sc-515, Santa Cruz Biotechnology), rabbit polyclonal anti human cleaved IL-1β (Asp116) (Cell Signaling, Boston, Mass.) or rabbit polyclonal anti murine cathepsin B (R&D Systems, Minneapolis, Minn.).
Cell culture supernatants were precipitated by adding an equal volume of methanol and 0.25 volumes of chloroform, vortexed and centrifuged at 20,000×g for 10 min. The upper phase was discarded and 500 μl of methanol was added to the interphase. This mixture was centrifuged at 20,000×g for 10 min and the protein pellet dried at 55° C., resuspended in Laemmli buffer and boiled at 99° C. for 5 min Samples were separated by SDS-PAGE (15%) and transferred onto nitrocellulose membranes. Blots were incubated with rabbit polyclonal antibody to anti murine caspase-1 p10 (sc-514, Santa Cruz Biotechnology, Santa Cruz, Calif.).

THP-1 cells = experiment: Lysosomal rupturing in THP-1 cells, IL-1β release; assay type: cell-based, human; details: PMA-differentiated THP-1 cells
Experimental: Cell culture supernatants were assayed for IL-1β using ELISA kits from BD Biosciences (Franklin Lakes, NJ) according to the manufacturer's instructions. To measure intracellular IL-1β, cells were washed and subjected to three freeze thaw cycles in assay diluent. PMA-differentiated THP-1 cells were incubated with hypertonic DMEM medium containing 10% polyethylene glycol (PEG) 1000, 1.4 M sucrose, 20 mM Hepes (pH 7.2) and 5% FCS for […] at 37° C. Cells were subsequently washed and incubated in hypotonic DMEM medium [DMEM: H2O (3:2)] for 2 min to induce lysosomal rupturing. Cells were then incubated in serum free DMEM for additional 4 hours.

caspase-1 [2] = experiment: Caspase-1 activation in microglia (FLICA, confocal microscopy, flow cytometry); assay type: cell-based, mouse
Experimental: For assessment of microglia-induced neurotoxicity, CAD mouse neuronal cells^47 were seeded on poly-L-lysine coated glass cover slips and grown in F12/DMEM supplemented with ciprofloxacin (Cellgro, Manassas, Va.) and 10% fetal calf serum (Hyclone, Logan, Utah) for 24 h. Differentiation was induced by withdrawal of serum for 48 h Immortalized microglia from wildtype or caspase-1^−/− mice were added in serum free medium to obtain mixed neuronal/microglial cultures and immediately stimulated. 72 h after stimulation with Aβ or media, cells were fixed, stained for the neuron-specific marker TuJ-1 and microglial marker CD11b, and imaged by confocal microscopy (Leica SP2 AOBS). Caspase-1 activity in microglial cells was assessed using the caspase-1 FLICA™ kit (Immunochemistry Technologies, Bloomington, Minn.) according to the manufacturer's instructions.
For evaluation of lysosomal damage, cells were incubated with LysoTracker green (1:2000) for 30 min and stimulated as described. Lysosomal damage was defined as loss of LysoTracker fluorescence as assessed by flow cytometry. All flow cytometry experiments were performed on an LSRII cytometer (BD Biosciences), data were acquired by DIVA software (BD Biosciences) and analyzed with FlowJo software (Tree Star Inc., Ashland, Oreg.).
IL-1β maturation is controlled by caspase-1 after assembly of the inflammasome, a multi protein complex that activates pro-caspase-1. In order to test whether Aβ activates caspase-1, we measured levels of activated caspase-1 using a fluorescent cell permeable probe (FAM-YVAD-Fmk), which covalently binds only to activated caspase-1 (Fluorescent labeled Inhibitors of Caspases, FLICA)^14. […] Similar results were obtained in primary microglial cultures (FIG. 15c).

ASC = experiment: ASC-CFP microglia cell line, ASC clustering; assay type: cell-based, mouse; details: LPS-primed ASC-CFP microglia, 3 h after stimulation
Source text: Human ASC was fused to CFP using BgIII/BamHI in pEF-BOS-CFP. Subsequently, ASC-CFP was cloned using XhoI and NotI into a modified form of FUGW (FUGW-XN). FUGW-XN was modified by replacing GFP with a novel cut site that created XhoI and NotI compatible ends upon Esp3I digestion.
Lentivirus was produced in 293T cells transfected with the FUGW based expression vector coding for ASC-CFP, lentiviral packaging plasmid containing gag, pol and rev genes (pCMV-dR8.91) and envelope plasmid (VSV-G) using TransIT-LT1 transfection reagent (Minis Bio, MIR 2300/5/6) as previously described^46. One day after transfection, medium was replaced and after one additional day of culture supernatants containing the lentivirus was removed, filtered and used to infect immortalized microglia cells.
For experiments, ASC-CFP microglial cells were seeded in duplicate into confocal dishes, stimulated as indicated. A647-labeled cholera toxin subunit B (1:1000) was added to stain cellular membranes. Cells were subsequently imaged using confocal microscopy (Leica SP2 AOBS). Cells were fixed and 5 random fields were imaged in duplicate for quantification.
First, we stably transduced microglial cell cultures with a fusion protein of ASC and cyan fluorescent protein (CFP). ASC forms large oligomers upon its activation, leading to visible changes in the cytoplasmic fluorescence pattern of ASC-CFP. […]

mouse microglia = experiment: IL-1β release from LPS-primed mouse microglia (ELISA); assay type: cell-based; details: LPS-primed immortalized microglia
Experimental: For primary cultures, bone marrow-derived macrophages and microglia were isolated as described^42,43 and cultured in DMEM supplemented with L-glutamine, ciprofloxacin (Cellgro, Manassas, Va.) and 10% fetal calf serum (Hyclone, Logan, Utah) Immortalized macrophage and microglial cell lines were generated using J2 recombinant retrovirus (carrying v-myc and v-raf oncogenes)^44,45. Briefly, primary bone marrow cells were incubated in L929 conditioned medium for 3-4 days to induce macrophage differentiation. Cells were then infected with J2 recombinant retrovirus and maintained in culture until cells were growing in the absence of conditioned medium. Similarly, primary mixed glial cultures were cultured until fully confluent. After two consecutive infections with J2 retrovirus, cells were maintained in normal medium until growth of microglial cells in colonies was observed. The semi-adherent colonies of microglial cells were washed off and cultured in new flasks. […] Microglial cell lines form wild type (C57/BL6), Caspase-1^−/− and IL-IR^−/− mice as well as macrophage cell lines from wild type (C57BL6), NALP3 -, IPAF- and ASC-deficient mice were generated and used for experiments as indicated.
(§2) Stimulations were carried out in serum free DMEM medium. Microglial cells and macrophages were primed with 100 U/ml IFNγ (Griess assay, TNF ELISA, real-time quantitative PCR) or 100 ng/ml ultrapure LPS (IL-1β ELISA, FLICA, ASC-CFP microglia cell line assay, Western blot) 1-3 h prior to stimulation with Aβ, revAβ, zymosan, ATP or transfection with dAdT.
Cell culture supernatants were assayed for IL-1β and TNFα using ELISA kits from R&D Systems (Minneapolis, Minn.) according to the manufacturer's instructions. Nitric oxide was measured by Griess reaction of nitrites accumulated in the supernatants using chemicals from Sigma.

mouse macrophages = experiment: IL-1β release from LPS-primed mouse macrophages (bone marrow-derived, B6-MCLs), ELISA; assay type: cell-based
Experimental: as §1
Immortalized macrophage cell lines were generated using the previously described J2 recombinant retrovirus (carrying v-myc and v-raf/mil oncogenes) (Roberson, S. M. & Walker, W. S. Cellular immunology 116:341-351 (1988)). Briefly, primary bone marrow cells were incubated in L929 conditioned medium for 3-4 days to induce macrophage differentiation. Subsequently, cells were infected with J2 recombinant retrovirus. Cells were maintained in culture for 3-6 months slowly weaning off the percentage of L929 supernatant until cells were growing in the absence of conditioned medium.
Macrophage phenotype was verified by surface marker expression for CD11b and F480 as well as a range of functional parameters, including responsiveness to TLR ligands and bacterial uptake. Macrophage cell lines from wild-type (C57BL6), NALP3- and ASC-deficient mice were generated and are referred to as B6-MCLs, NALP3 -MCLs and ASC-MCLs.
Cell culture supernatants were assayed for IL-1β using ELISA kits from BD Biosciences (Franklin Lakes, NJ) according to the manufacturer's instructions. To measure intracellular IL-1β, cells were washed and subjected to three freeze thaw cycles in assay diluent.
as §2

[3] = test system: lysosomes of mouse macrophages; experiment: Lysosomal acidification, proteolysis and rupture in mouse macrophages (LysoSensor Green, DQ ovalbumin, acridine orange, dextran); assay type: cell-based
Experimental: For evaluation of lysosomal rupture, cells were incubated with 1 μg/m1 acridine orange for 15 min, washed three times and subsequently stimulated as indicated. Lysosomal rupture can be assessed by loss of emission at 600-650 nm using flow cytometry. All flow cytometry experiments were performed on an LSRII cytometer (BD Biosciences). Data were acquired by DIVA (BD Biosciences) and analyzed by FlowJo software (Tree Star Inc., Ashland, Oreg.).
Confocal reflection microscopy was combined with fluorescence microscopy on a Leica SP2 AOBS confocal laser scanning microscope. Reflection was captured by placing the detector channel directly over the wavelength of the selected laser channel for reflection light capture and the AOBS was set to allow 5-15% of laser light into the collection channel. Fluorescence was simultaneously captured by standard confocal imaging techniques.

## Nc1ncnc2c1ncn2[C@@H]1O[C@H](COP(=O)(O)OP(=O)(O)OP(=O)(O)O)[C@@H](O)[C@H]1O [ATP]
caspase-1 [1]
  caspase-1 cleavage induced by the stimulus: induced in a dose dependent way
  caspase-1 cleavage (p10) induced by the stimulus: induced caspase-1 cleavage (p10)
THP-1 cells; 4 h
  IL-1β release induced by the stimulus: increased IL-1β release
caspase-1 [2]; immortalized microglia, Aβ 10 μM, revAβ 10 μM, ATP 1 mM, 4 h
  caspase-1 positive microglial cells after stimulation: robust increase
ASC
  formation of fluorescent ASC-CFP clusters: also observed

## CCCNC(=O)[C@H]1O[C@@H]1C(=O)N[C@H](C(=O)N1CCC[C@H]1C(=O)OC)[C@@H](C)CC [CA-074-Me]
caspase-1 [1]; LPS-primed B6-MCLs, CA-074-Me 10 μM (FIG. 5a)
  caspase-1 activation after silica crystal treatment, inhibitor present: much less caspase-1 activation
caspase-1 [1]; mouse macrophages, hypertonic then hypotonic media, CA-074-Me 10 or 2 μM
  caspase-1 cleavage after crystal-independent disruption of lysosomes, inhibitor present: partially inhibited
THP-1 cells
  IL-1β release after lysosomal rupture, inhibitor present: clearly reduced
Mouse microglia
  Aβ-induced IL-1β release in presence of cathepsin inhibitor: dose-dependently inhibited
caspase-1 [2]; microglia, FLICA, flow cytometry
  caspase-1 activation after Aβ stimulation, inhibitor present: strongly and dose-dependently inhibited; also recorded: dose-dependently reduced
caspase-1 [2]; microglia, FLICA, inhibitor 20 μM
  caspase-1 activation induced by ATP, inhibitor present: not affected; also recorded: no effect

## COC(=O)[C@H](CC(C)C)NC(=O)[C@@H](N)CC(C)C [Leu-Leu-OMe, L-leucyl-L-leucine methyl ester]
Mouse macrophages; LPS-primed macrophages from wild-type mice
  IL-1β produced in response to the stimulus: large quantities of IL-1β
[3]; mouse macrophages, acridine orange, DQ ovalbumin, dextran
  lysosomal rupture / loss of lysosomes caused by the stimulus: considerable swelling and rupture of lysosomes

## O=C(NC(Cc1ccccc1)C(=O)NC(Cc1ccccc1)C(=O)CF)OCc1ccccc1 (stereo not drawn) [Z-FF-FMK] (Cbz-Phe-Phe-CH2F; configuration not given here)
Mouse microglia
  Aβ-induced IL-1β release in presence of cathepsin inhibitor: no effect; also recorded: no attenuation

## CO/C1=C\C(C)=C\[C@@H](C)[C@@H](O)[C@@H](C)C/C(C)=C/C=C/[C@H](OC)[C@@H]([C@@H](C)[C@@H](O)[C@H](C)[C@@]2(O)C[C@@H](O)[C@H](C)[C@@H](C(C)C)O2)OC1=O [bafilomycin A]
Mouse macrophages; LPS-primed B6-MCLs, 6 h
  ATP-induced IL-1β release, inhibitor present: no effect
  silica-mediated IL-1β release, inhibitor present: completely blocked
Mouse macrophages; LPS-primed bone marrow-derived macrophages, bafilomycin 250 nM
  release of IL-1b in response to Leu-Leu-OMe, inhibitor present: also inhibited
[3]; mouse macrophages
  formation of acidic lysosomes (LysoSensor Green): blocked
[3]; mouse macrophages (data not shown)
  Leu-Leu-OMe-induced lysosomal morphology change and rupture, inhibitor present: much less altered lysosomal morphology and rupture
[3]; mouse macrophages, bafilomycin 250 nM
  appearance of fluorescent DQ ovalbumin (lysosomal proteolytic function): suppressed

## CC(C)CC(=O)N[C@H](C(=O)N[C@H](C(=O)N[C@@H](CC(C)C)[C@@H](O)CC(=O)N[C@@H](C)C(=O)N[C@@H](CC(C)C)[C@@H](O)CC(=O)O)C(C)C)C(C)C [pepstatin A] (Isovaleryl-VV[Sta]A[Sta]-OH)
Mouse microglia
  Aβ-induced IL-1β release in presence of cathepsin inhibitor: no effect; also recorded: no attenuation

## poly(deoxyadenylic-thymidylic) acid sodium salt [poly(dA:dT)]
caspase-1 [1]
  caspase-1 cleavage induced by the stimulus: induced in a dose dependent way
  caspase-1 cleavage (p10) induced by the stimulus: induced caspase-1 cleavage (p10)
